Results published in paper PMC3469748 (Molecular and cellular biochemistry, 2012).

Experiments:
[1] = biological target: T1, thioredoxin reductase 1 (TrxR) (Rattus norvegicus, UniProt O89049); test: DTNB reduction assay
T1 sequence (O89049 1-499): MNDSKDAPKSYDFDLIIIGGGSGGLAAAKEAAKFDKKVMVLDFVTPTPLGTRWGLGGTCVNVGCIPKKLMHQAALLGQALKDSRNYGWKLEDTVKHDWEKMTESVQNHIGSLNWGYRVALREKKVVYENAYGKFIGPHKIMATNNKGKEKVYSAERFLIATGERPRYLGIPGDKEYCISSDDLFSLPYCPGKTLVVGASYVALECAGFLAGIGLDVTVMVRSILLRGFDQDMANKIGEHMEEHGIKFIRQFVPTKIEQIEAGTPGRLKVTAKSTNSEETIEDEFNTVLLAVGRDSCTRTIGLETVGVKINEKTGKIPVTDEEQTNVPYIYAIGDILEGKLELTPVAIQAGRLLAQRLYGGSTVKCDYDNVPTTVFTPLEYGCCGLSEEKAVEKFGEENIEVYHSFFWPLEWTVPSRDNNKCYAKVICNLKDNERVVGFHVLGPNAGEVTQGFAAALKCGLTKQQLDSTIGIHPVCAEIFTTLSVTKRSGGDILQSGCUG

[2] = biological target: T1, thioredoxin reductase 1 (TrxR); test: biochemical

Structure (SMILES) | IC50 [1] [µM] | IC50 [2] [µM]
CNC(=O)N(NS(C)(=O)=O)S(C)(=O)=O [101MDCE] | 5.37 ± 0.58 | –
CNC(=O)N(N(CCCl)S(C)(=O)=O)S(C)(=O)=O [Laromustine, 1,2-bis(methylsulfonyl)-1-(2-chloroethyl)-2-[(methylamino)carbonyl]hydrazine] | 4.65 ± 0.37 | –
O=NN(CCCl)C(=O)NCCCl [Carmustine, 1,3-bis(2-chloroethyl)-1-nitrosourea] | – | 7.63 ± 0.72
